Our source for the Kd values is patent US12534469B2 (CHILDREN'S HOSPITAL MEDICAL CENTER, priority 2020, dated 2026).

The target in test [1] is T1, FLT3 N841I (Homo sapiens, UniProt P36888, N841I).
T1 construct: purchased DiscoverX (KINOMEscan); host or cells: E. coli (T7 phage) or HEK-293
T1 sequence (P36888 27-993 N841I): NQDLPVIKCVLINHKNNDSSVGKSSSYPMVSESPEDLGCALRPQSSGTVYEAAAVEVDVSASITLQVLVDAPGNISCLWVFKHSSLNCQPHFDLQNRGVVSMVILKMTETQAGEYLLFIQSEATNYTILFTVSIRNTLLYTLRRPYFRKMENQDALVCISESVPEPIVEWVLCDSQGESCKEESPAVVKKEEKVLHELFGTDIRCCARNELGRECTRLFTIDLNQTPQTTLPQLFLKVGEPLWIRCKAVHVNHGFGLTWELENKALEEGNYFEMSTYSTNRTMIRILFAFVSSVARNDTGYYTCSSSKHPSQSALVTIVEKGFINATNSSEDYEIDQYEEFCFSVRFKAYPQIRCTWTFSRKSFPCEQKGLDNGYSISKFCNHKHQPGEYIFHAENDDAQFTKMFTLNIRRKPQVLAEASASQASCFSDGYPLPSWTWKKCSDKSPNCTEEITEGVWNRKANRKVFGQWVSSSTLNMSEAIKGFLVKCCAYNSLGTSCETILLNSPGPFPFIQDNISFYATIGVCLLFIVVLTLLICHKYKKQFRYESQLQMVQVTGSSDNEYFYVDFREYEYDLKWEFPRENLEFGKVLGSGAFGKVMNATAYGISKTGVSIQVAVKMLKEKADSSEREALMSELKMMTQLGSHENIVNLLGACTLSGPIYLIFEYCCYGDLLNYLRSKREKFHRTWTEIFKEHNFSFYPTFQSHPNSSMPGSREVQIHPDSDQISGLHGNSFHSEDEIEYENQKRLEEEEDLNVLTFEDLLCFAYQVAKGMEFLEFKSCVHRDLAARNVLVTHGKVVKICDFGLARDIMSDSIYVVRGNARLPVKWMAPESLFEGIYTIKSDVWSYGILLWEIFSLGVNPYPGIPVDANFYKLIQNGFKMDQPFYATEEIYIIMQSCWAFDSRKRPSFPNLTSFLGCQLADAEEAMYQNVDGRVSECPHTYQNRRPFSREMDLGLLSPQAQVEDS
Briefly: DiscoverX KINOMEscan competition binding assay, FLT3 N841I. An excerpt:
(§1) Kinase binding data were obtained for various exemplary compounds prepared according to Examples 1-25 using the DiscoverX KINOMEscan® active site-directed competition binding site-directed assay protocol described below. […] As a result, the data report thermodynamic interaction affinities (Kd values), rather than IC50 values that are dependent on ATP concentrations. The assay uses a DNA-tagged version of the protein kinase, and an immobilized ligand bound to a solid support. Compounds that directly or indirectly prevent kinase binding to the immobilized ligand reduce the amount of kinase captured on the solid support, which is detected using an ultra-sensitive qPCR method. Affinity constants reported from the assay have been reported to be independent of the immobilized ligand used that is coupled to the solid support (See supplemental information in Fabian, M. A. et. al., (2005) Nat. Biotechnol. 23, 329-336; Wodicka, L. M. et. al., (2010) Chem. Biol. 17, 1241-1249.)
(§2) Kinase-tagged T7 phage strains were prepared in an E. coli host derived from the BL21 strain. E. coli were grown to log-phase and infected with T7 phage and incubated with shaking at 32° C. until lysis. The lysates were centrifuged and filtered to remove cell debris. The remaining kinases were produced in HEK-293 cells and subsequently tagged with DNA for qPCR detection. […] The liganded beads were blocked with excess biotin and washed with blocking buffer (SeaBlock (Pierce), 1% BSA, 0.05% Tween 20, 1 mM DTT) to remove unbound ligand and to reduce non-specific binding. […] Test compounds were prepared as 111× stocks in 100% DMSO. Kds were determined using an 11-point 3-fold compound dilution series with three DMSO control points. […] The compounds were then diluted directly into the assays such that the final concentration of DMSO was 0.9%. All reactions were performed in polypropylene 384-well plates. Each was a final volume of 0.02 mL. […] The kinase concentration in the eluates was measured by qPCR.
(§3) Binding constants (Kds) were calculated with a standard dose-response curve using the Hill equation. […]

In test [2] the target is T2, FLT3 D835H (Homo sapiens, UniProt P36888, D835H).
T2 construct: purchased DiscoverX (KINOMEscan); host or cells: E. coli (T7 phage) or HEK-293
T2 sequence (P36888 27-993 D835H): T1 sequence (P36888 27-993 N841I) with D809H, I815N
In words: DiscoverX KINOMEscan competition binding assay, FLT3 D835H.
Source text: as §1, §2, §3

Residue numbers refer to the chain shown, from its start.

Regarding `COc1cc2ncc(-c3cccc(N[C@@H]4CCNC4)n3)n2nc1C1CC1` [Compound 97, (R)-6-(6-cyclopropyl-7-methoxyimidazo[1,2-b]pyridazin-3-yl)-N-(pyrrolidin-3-yl)pyridin-2-amine], the Kd in test [1] was found to be 0.55 nM; in test [2], 0.18 nM.

Regarding `COc1cc2ncc(-c3cccc(N[C@H]4CNCC[C@@H]4F)n3)n2nc1C1CC1` [Compound 102, 6-(6-cyclopropyl-7-methoxyimidazo[1,2-b]pyridazin-3-yl)-N-((3S,4S)-4-fluoropiperidin-3-yl)pyridin-2-amine], the Kd in test [1] came to 0.36 nM; in test [2], 0.21 nM.

Take `COc1cc2ncc(-c3cccc(N[C@H]4CNC[C@@H]4F)n3)n2nc1C1CC1` [Compound 96, 6-(6-cyclopropyl-7-methoxyimidazo[1,2-b]pyridazin-3-yl)-N-((3S,4S)-4-fluoropyrrolidin-3-yl)pyridin-2-amine]: the figures for the Kd in test [1] and in test [2] were 0.91 nM and 0.23 nM, respectively.
